Source: patent publication US7981883B2, “Substituted spiro-compounds and the use thereof for producing medicaments” (Gruenenthal GmbH, priority 2005, dated 2011)

How the values were obtained:
Assay type in all cases: cell-based
VR1 (rat) [1] = molecular target: T1, VR1 (rat) (Rattus norvegicus, UniProt O35433); assay: Functional FLIPR Ca2+ inflow assay on rat-species vanilloid receptor 1 in rat dorsal root ganglia cells; details: against capsaicin (CAP)
T1 construct: from tissue; host or cells: primary cells dissociated from rat dorsal root ganglia

VR1 (human) [2] = molecular target: T2, VR1 (human) (Homo sapiens, UniProt Q8NER1); assay: Functional FLIPR Ca2+ inflow assay on VR1 (human), CHO K1 cells stably transfected with the VR1 gene; details: CHO-K1, test compound 10 μM
T2 construct: expressed in transfected cells; host or cells: CHO K1 cells (ECACC)
Description: II. Functional Testing Carried Out on the Vanilloid Receptor (VR1)
The agonistic or antagonistic effect of the substances to be tested can also be determined on the vanilloid receptor (VR1) using the following assay. According to this assay, the Ca^2+ inflow is quantified through the channel using a Ca^2+-sensitive dye (type Fluo-4, Molecular Probes Europe BV, Leiden, Netherlands) in a fluorescent imaging plate reader (FLIPR, Molecular Devices, Sunnyvale, USA).
Chinese hamster ovary cells (CHO K1 cells, European Collection of Cell Cultures (ECACC) United Kingdom) were stably transfected with the VR1 gene. For functional testing, these cells were plated out on poly-D-lysine-coated black 96 well plates having a clear base (BD Biosciences, Heidelberg, Germany) at a density of 25,000 cells/well. The cells were incubated overnight at 37° C. and 5% CO2 in a culture medium (Ham's F12 nutrient mixture, 10% by volume of FCS (foetal calf serum), 18 μg/ml L-proline). The next day the cells were incubated with Fluo-4 (Fluo-4 2 μM, 0.01% by volume of Pluronic F127, Molecular Probes in HBSS (Hank's buffered saline solution), Gibco Invitrogen GmbH, Karlsruhe, Germany) for 30 minutes at 37° C. Subsequently, the plates were washed three times with HBSS buffer and after further incubation for 15 minutes at room temperature used for Ca^2+ measurement in a FLIPR assay. The Ca^2+-dependent fluorescence was measured before and after the addition of the substances to be tested (λex wavelength=488 nm, λem=540 nm). Quantification was carried out by measuring the highest fluorescence intensity (FC, Fluorescence Counts) over time.
The FLIPR protocol consists of 2 substance additions. First the compounds to be tested (10 μM) were pipetted onto the cells and the Ca^2+ inflow was compared with the control (capsaicin 10 μM) (% activation based on the Ca^2+ signal after the addition of 10 μM capsaicin). After 5 minutes' incubation, 100 nM of capsaicin were administered and the Ca^2+ inflow was also determined.
Desensitising agonists and antagonists led to suppression of the Ca^2+ inflow. The % inhibition was calculated compared to the maximum achievable inhibition with 10 μM of capsaicin.

VR1 (human) [3] = molecular target: T2, VR1 (human); assay: as above; details: against capsaicin (CAP)
VR1 (rat) [4] = molecular target: T1, VR1 (rat); assay: Functional FLIPR Ca2+ inflow assay on rat-species vanilloid receptor 1 in rat dorsal root ganglia cells; details: test compound 10 μM
Description: I. Functional Testing Carried Out on the Vanilloid Receptor 1 (VR1/TRPV1 Receptor)
The agonistic or antagonistic effect of the substances to be tested can be determined on the rat-species vanilloid receptor 1 (VR1/TRPV1) using the following assay. According to this assay, the Ca^2+ inflow is quantified through the receptor channel using a Ca^2+-sensitive dye (type Fluo-4, Molecular Probes Europe BV, Leiden, Netherlands) in a fluorescent imaging plate reader (FLIPR, Molecular Devices, Sunnyvale, USA).
Complete medium: 50 mL HAMS F12 nutrient mixture (Gibco Invitrogen GmbH, Karlsruhe, Germany) with
10% by volume of FCS (foetal calf serum, Gibco Invitrogen GmbH, Karlsruhe, Germany, […]);
2 mM L-glutamine (Sigma, Munich, Germany);
1% by weight of AA solution (antibiotic/antimyotic solution, PAA, Pasching, Austria) and 25 ng/ml NGF medium (2.5 S, Gibco Invitrogen GmbH, Karlsruhe, Germany)
Cell culture plate: Poly-D-lysine-coated, black 96 well plates having a clear base (96 well black/clear plate, BD Biosciences, Heidelberg, Germany) were additionally coated with laminin (Gibco Invitrogen GmbH, Karlsruhe, Germany), the laminin being diluted with PBS (Ca—Mg-free PBS, Gibco Invitrogen GmbH, Karlsruhe, Germany) to a concentration of 100 μg/mL. Aliquots having a laminin concentration of 100 μg/mL were removed and stored at −20° C. The aliquots were diluted with PBS in a ratio of 1:10 to 10 μg/mL laminin and in each case 50 μL of the solution were pipetted into a recess in the cell culture plate. The cell culture plates were incubated for at least two hours at 37° C., the excess solution was removed by suction-filtration and the recesses were each washed twice with PBS. The coated cell culture plates were stored with excess PBS which was not removed until just before the feeding of the cells.
The vertebral column was removed from decapitated rats and placed immediately into cold HBSS buffer (Hank's buffered saline solution, Gibco Invitrogen GmbH, Karlsruhe, Germany), i.e. buffer located in an ice bath, mixed with 1% by volume (percent by volume) of an AA solution (antibiotic/antimyotic solution, PAA, Pasching, Austria). The vertebral column was cut longitudinally and removed together with fasciae from the vertebral canal. Subsequently, the dorsal root ganglia (DRG) were removed and again stored in cold HBSS buffer mixed with 1% by volume of an AA solution. The DRG, from which all blood remnants and spinal nerves had been removed, were transferred in each case to 500 μL of cold type 2 collagenase (PAA, Pasching, Austria) and incubated for 35 minutes at 37° C. After the addition of 2.5% by volume of trypsin (PAA, Pasching, Austria), incubation was continued for 10 minutes at 37° C. After complete incubation, the enzyme solution was carefully pipetted off and 500 μL of complete medium were added to each of the remaining DRG. The DRG were in each case suspended several times, drawn through cannulae No. 1, No. 12 and No. 16 using a syringe and transferred to a 50 mL Falcon tube which was filled up to 15 mL with complete medium. The contents of each Falcon tube was in each case filtered through a 70 μm Falcon filter element and centrifuged for 10 minutes at 1,200 rpm and room temperature. The resulting pellet was in each case taken up in 250 μL of complete medium and the number of cells determined.
The number of cells in the suspension was set to 3×10^5 per mL and 150 μL of this suspension were in each case introduced into a recess in the cell culture plates coated as described hereinbefore. In the incubator the plates were left for two to three days at 37° C., 5% by volume of CO2 and 95% relative humidity. […]

T2 sequence (Q8NER1 whole entry): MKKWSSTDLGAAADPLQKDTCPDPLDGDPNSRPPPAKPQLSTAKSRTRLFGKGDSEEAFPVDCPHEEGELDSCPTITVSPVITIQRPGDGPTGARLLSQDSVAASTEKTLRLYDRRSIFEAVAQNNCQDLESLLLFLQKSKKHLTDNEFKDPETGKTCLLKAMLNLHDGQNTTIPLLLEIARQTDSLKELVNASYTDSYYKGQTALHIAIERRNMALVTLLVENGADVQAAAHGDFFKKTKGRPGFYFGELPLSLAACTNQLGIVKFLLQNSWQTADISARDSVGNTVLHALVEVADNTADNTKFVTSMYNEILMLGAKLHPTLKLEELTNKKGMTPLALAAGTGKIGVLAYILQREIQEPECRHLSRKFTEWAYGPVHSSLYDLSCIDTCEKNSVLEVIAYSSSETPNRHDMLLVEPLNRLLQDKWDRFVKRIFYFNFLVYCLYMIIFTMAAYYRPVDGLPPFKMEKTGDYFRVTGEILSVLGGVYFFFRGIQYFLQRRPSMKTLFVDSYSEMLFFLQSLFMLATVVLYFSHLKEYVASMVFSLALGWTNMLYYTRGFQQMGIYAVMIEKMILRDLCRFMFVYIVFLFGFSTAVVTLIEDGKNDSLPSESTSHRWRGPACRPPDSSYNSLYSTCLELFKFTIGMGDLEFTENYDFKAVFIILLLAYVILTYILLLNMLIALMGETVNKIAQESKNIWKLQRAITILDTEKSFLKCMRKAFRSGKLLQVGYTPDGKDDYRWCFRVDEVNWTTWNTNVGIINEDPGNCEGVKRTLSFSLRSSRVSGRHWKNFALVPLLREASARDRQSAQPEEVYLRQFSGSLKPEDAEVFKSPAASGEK
T1 sequence (O35433 whole entry): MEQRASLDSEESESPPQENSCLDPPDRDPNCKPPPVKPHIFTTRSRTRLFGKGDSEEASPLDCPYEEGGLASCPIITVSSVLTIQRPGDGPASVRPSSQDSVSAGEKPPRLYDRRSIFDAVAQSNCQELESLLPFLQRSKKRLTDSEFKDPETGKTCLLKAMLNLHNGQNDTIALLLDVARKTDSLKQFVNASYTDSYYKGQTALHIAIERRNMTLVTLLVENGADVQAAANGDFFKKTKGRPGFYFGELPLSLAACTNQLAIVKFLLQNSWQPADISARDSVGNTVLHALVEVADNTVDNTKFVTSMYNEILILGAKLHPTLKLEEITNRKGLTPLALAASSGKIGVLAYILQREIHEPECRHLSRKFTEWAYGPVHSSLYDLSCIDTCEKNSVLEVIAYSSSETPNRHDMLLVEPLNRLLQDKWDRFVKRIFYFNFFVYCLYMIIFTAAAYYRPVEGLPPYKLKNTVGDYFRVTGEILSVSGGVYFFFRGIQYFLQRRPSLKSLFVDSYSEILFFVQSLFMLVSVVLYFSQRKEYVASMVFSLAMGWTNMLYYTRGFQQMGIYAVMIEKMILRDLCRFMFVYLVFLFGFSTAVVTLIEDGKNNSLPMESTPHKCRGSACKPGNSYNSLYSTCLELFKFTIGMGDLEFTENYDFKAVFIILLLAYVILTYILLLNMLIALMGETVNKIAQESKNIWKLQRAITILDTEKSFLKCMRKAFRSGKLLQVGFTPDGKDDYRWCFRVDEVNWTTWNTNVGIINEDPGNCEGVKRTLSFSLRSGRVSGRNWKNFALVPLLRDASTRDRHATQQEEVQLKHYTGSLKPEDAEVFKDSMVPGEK

- IC50 (VR1 (rat) [1]): 126 nM
- Ki (VR1 (rat) [1]): 79.7 nM
- inhibition at 10 µM (VR1 (human) [2]; then 100 nM capsaicin after 5 min, relative to maximum inhibition with 10 μM capsaicin, read-out: VR1 (human) (% inhibition compared to 10 μM CP)): 92.8%
- activation at 10 µM (VR1 (human) [2]; Ca2+ signal relative to 10 μM capsaicin (CP), read-out: VR1 (human) (% stimulation compared to 10 μM CP)): -0.05%
- IC50 (VR1 (human) [3]): 1240 nM
- Ki (VR1 (human) [3]): 1990 nM
- inhibition at 10 µM (VR1 (rat) [4]; then 100 nM capsaicin after 5 min, relative to maximum inhibition with 10 μM capsaicin, read-out: VR1 (rat) (% inhibition compared to 10 μM CP)): 105%
- activation at 10 µM (VR1 (rat) [4]; Ca2+ signal relative to 10 μM capsaicin (CP), read-out: VR1 (rat) (% stimulation compared to 10 μM CP)): 0.23%
SMILES: CC(C)(C)[C@H]1CC[C@@]2(CC1)CC(C(=O)NCc1ccc(NS(C)(=O)=O)c(F)c1)=NO2 [Example 7, cis-8-tert-butyl-1-oxa-2-azaspiro[4.5]dec-2-ene-3-carboxylic acid-3-fluoro-4-methanesulphonylaminobenzylamide]
